# Measurements as given in the METLIN SMRT retention time set (Domingo-Almenara et al. 2019).
# Assay: gradient 5% acetonitrile 3 min, to 50% in 2 min, to 85% in 15 min, held 3 min, 100 µL/min
# Conditions: column: Zorbax Extend-C18 2.1 x 50 mm; eluents: water / acetonitrile, 0.1% formic acid
# How it was run: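 The mobile phases were water and acetonitrile, each with 0.1% formic acid, pumped at 100 μL/min through a Zorbax Extend-C18 column (2.1 × 50 mm, 1.8 μm). Pure standards were injected as mixtures of ~100 molecules and detected by a quadrupole time-of-flight mass spectrometer in positive and negative ionization mode. Retention time came from computationally picked adduct peaks, each inspected by hand.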
row,SMILES,RP-LC retention time [s]
1,COc1ccc(S(=O)(=O)N2C[C@@H](F)C[C@H]2C(=O)N2CCCCC2)cc1Cl,785
2,Cc1ccc(Cn2nc3ccc(S(=O)(=O)N4CCSCC4)cn3c2=O)cc1C,1000
3,COc1ccc(OCC(=O)N2CCC(C(=O)NCc3csc(-c4cccs4)n3)CC2)cc1,771
4,COc1cc2c(cc1OC)C(C(=O)N1CC(C)CC(C)C1)C(c1cccnc1)N(C)C2=O (configuration not stated),659
5,Cc1nnc2ccc(-c3noc(Cc4ccccc4Cl)n3)cn12,852
6,CC(C)NC(=O)c1cc2c(=O)oc3ccccc3c2n1C,760
7,C=CCN1C(=O)COc2ccc(-c3nc(NC(=O)C(C)C)sc3C)cc21,922
8,O=c1n(Cc2c(F)cccc2Cl)nc2c(S(=O)(=O)N3CCCC3)cccn12,840
9,COc1ccc(-c2nc3n(n2)C2(CCCCC2)[C@@H]2CCCC[C@@H]2N3C(=O)C2CC2)cc1,682
10,COc1ccc(N2CC(c3nc(-c4cccs4)no3)CC2=O)cc1Cl (configuration not stated),930
11,CCn1cnc(S(=O)(=O)N2CCCC(C(=O)NC3CCCCCCC3)C2)c1 (configuration not stated),788
12,CCc1cc(=O)n(CC(=O)Nc2cc(F)ccc2F)c(-c2ccccc2)n1,1180
13,O=C(Cc1c[nH]c2ccccc12)N1CCN(C(=O)c2cc(-c3ccncc3)n[nH]2)CC1,578
14,O=C(NCc1ccc(Br)cc1)c1cn2c(n1)CCCC2,633
15,O=C(NCc1ccncc1)C1CCN(c2ncnc3c2oc2ccccc23)CC1,593
16,CCC(C)NC(=O)C1CCCN1S(=O)(=O)c1cc2c(cc1C)NC(=O)CO2 (configuration not stated),710
17,COC(=O)c1ccc(COc2cc(O)c3c(=O)cc(-c4ccccc4)oc3c2)cc1,1290
18,COc1cccc(CN2CCn3c(nnc3[C@@H]3C[C@@H](O)CN3C)C2)c1OC,549
19,Cc1ccc(C)c(-c2coc(-c3ccc(NC(=O)CC(C)C)cc3)n2)c1,1260
20,O=C(NCc1ccco1)Nc1cccn2c(C3CCC3)nnc12,694
21,CCC(=O)NCc1nc2c(n1CC)CN(S(=O)(=O)c1cccc(F)c1)CC2,529
22,COC(=O)c1scc(C)c1NC(=O)C(C)NC(C)C (configuration not stated),618
23,O=C(Nc1ccc2c(c1)OCCO2)c1cn(-c2cc(N3CCSCC3)ncn2)cn1,832

row,SMILES,RP-LC retention time [s]
1,CCC(C)NC(=O)N1CCc2c(c(-c3nc(-c4ccc(F)cc4)no3)nn2C)C1 (configuration not stated),594
2,CCC(C)C(NC(=O)c1cc(C)cc(C)c1)C(=O)Nc1nc2ccccc2[nH]1 (configuration not stated),799
3,Cc1ccccc1OCC(=O)Nc1nnc(C2CC(=O)N(c3ccc(F)cc3)C2)o1 (configuration not stated),738
4,COc1ccc(NC(=O)c2cccn2-c2cccnc2)cc1OC,678
5,CC(CNC(=O)C1CCN(S(=O)(=O)c2ccc3c(c2)NC(=O)CO3)CC1)c1ccccc1 (configuration not stated),792
6,CCC[C@H](NC(=O)/C(C#N)=C/c1cccc(Br)n1)c1ccccc1,684
7,Cc1cc(C)n(Cc2nc(-c3ccc(NC(=O)C4CCCO4)cc3)oc2C)n1 (configuration not stated),795
8,COc1c(C(=O)Nc2ccc3c(c2)OCO3)sc2ccc(Cl)cc12,1180
9,O=C(COc1ccc(Br)cc1)NCC(c1cccs1)N1CCCC1 (configuration not stated),672
10,COc1ccc(-c2cn3cccnc3n2)cc1NC(=O)c1ccc(F)c(F)c1,718
11,Cc1csc(-c2ccc(N3CCN(C(=O)c4ccc5ccccc5n4)CC3)nc2)n1,833
12,COCCNC(=O)C(=O)NCCC(O)C(C)(C)C (configuration not stated),614
13,CCOc1nc2ccccc2nc1N1CCCC(C(=O)Nc2ccc(OC)cc2OC)C1 (configuration not stated),1180
14,Fc1ccc(-c2csc(Nc3cccnc3)n2)cc1,669
15,CC(C)c1ccc(NC(=O)C2CCN(C(=O)C(C)(C)C)CC2)cc1,907
16,CCC(CC)C(=O)N1CCC(Oc2nccnc2N(C)C)C1 (configuration not stated),749
17,CC(C)c1ccc(C(=O)NC(Cc2ccccc2)c2nnc(N3CCSCC3)o2)cc1 (configuration not stated),996
18,Cc1cc2c(cc1S(=O)(=O)N1CCCC1C(=O)Nc1ccc(C(C)C)cc1)OCC(=O)N2 (configuration not stated),902
19,CC(C)CCNC(=O)C1CCN(S(=O)(=O)c2ccc3c(c2)NC(=O)CO3)CC1,744
20,C=C[C@]12CN(C)C3C4COC(CC41)[C@]1(C(=O)Nc4ccccc41)[C@@H]32 (some centres not stated),551
21,O=C(Nc1nnc(-c2ccco2)o1)c1c[nH]c2ccccc12,656
22,Cc1ccc(-c2cc3c(N4CCCC(C(=O)NCC5CC5)C4)nccn3n2)c(C)c1 (configuration not stated),863
23,O=C(CSc1nccn(-c2ccc(F)c(F)c2)c1=O)NCc1ccccc1Cl,816

row,SMILES,RP-LC retention time [s]
1,COc1cccc(C(O)CN2CCN(c3ccccc3F)CC2)c1 (configuration not stated),654
2,CC1CC(C)CN(S(=O)(=O)N2CCCC(C(=O)NCc3ccc(F)cc3)C2)C1 (configuration not stated),1060
3,Cc1ccc(CN2CCN(C3CCN(C(=O)Nc4ccc(C)cc4)CC3)C(=O)C2=O)cc1,768
4,CCc1nc(C2CN(CCc3ccccc3)CC23CCCC3)no1 (configuration not stated),670
5,Cc1cc2ccccc2n1CCNC(=O)C(=O)c1cn(CC(=O)N2CCCC2)c2ccccc12,1010
6,CCC(C)NC(=O)c1c(C)oc2ccn(Cc3ccc(F)cc3)c(=O)c12 (configuration not stated),1040
7,CCCN1CCN(C(=O)c2ccc(CN3CCN(Cc4ccccc4)C(=O)C3=O)cc2)CC1,811
8,O=C(NC1CCCCCC1)c1csc(-c2ccc(N3CCCC3)nc2)n1,774
9,c1cc(-n2nnc3cnccc32)ccn1,637
10,Cc1ccoc1C(=O)N1CCCn2ccnc2C1c1cnn(C)c1 (configuration not stated),570
11,Cc1ccc(NC(=O)Cn2c(C(C)C)nc3c(c2=O)CN(Cc2ccccc2)CC3)cc1C,738
12,O=C(CCc1c(-c2ccc(Cl)cc2)nc2ccccn12)NCC1CCCO1 (configuration not stated),602
13,Cc1ccc(-c2nc(C3CCN(S(=O)(=O)c4c(C)cc(C)cc4C)CC3)no2)cc1,1420
14,COc1ccc(OC)c(NC(=O)Cn2c(=O)n(-c3ccc(C)cc3)c(=O)c3c2cc(C)n3C)c1,908
15,CCn1nc(C)c(CCNC(=O)CCCn2c3ccccc3c3cnn(C)c(=O)c32)c1C,698
16,NC(=O)c1ccc2c(c1)S(=O)(=O)c1ccccc1C2=O,727
17,O=C(Cn1cnc2nc(N3CCC(C(=O)NC4CC4)CC3)sc2c1=O)NCc1ccc(F)cc1,655
18,COc1ccc(NC(=O)N2CCc3c(C(=O)NC4CCN(C)CC4)cccc32)cc1,603
19,COCCCNC(=O)c1ccc(-c2nc3cccnc3n(C3CCCC3)c2=O)cc1,867
20,CCOC(=O)C1CCN(C(=O)c2sc(Nc3cccc(C)n3)nc2C)CC1,774
21,COc1ccccc1Cc1nc(-c2cn(-c3cccc(F)c3)nn2)no1,1040
